Data set [1] relates to organotypic hippocampal slice cultures. Nature of the data set: Oxygen-glucose deprivation (OGD) in organotypic hippocampal slice cultures (PI fluorescence in CA1). It counts as cell-based, Wistar rat. The method, then:
(§1) Medium was changed every 3-4 days.
(§2) Neurotoxicity protocols are outlined below.
(2) Oxygen-Glucose Deprivation (OGD): Experimental ischaemia was performed by exposing cultures to oxygen-glucose deprivation (OGD) as described previously. […] OGD was induced by transferring cultures to glucose-free SFM (+PI) which had been saturated with 95% N2/5% CO2. Culture plates (without lids) were then sealed into an airtight chamber in which the atmosphere was saturated with 95% N2/5% CO2 by continuously blowing through gas at 10 L/min for ten minutes before being sealed and placed in the incubator for 50 mins (total time of OGD was therefore 60 mins). At the end of the period of OGD cultures were returned to normoxic SFM containing PI and placed back in the incubator for 23 hours.

Data set [2] has the same test system. Nature of the data set: Duroquinone free radical-mediated toxicity in organotypic hippocampal slice cultures (PI fluorescence in CA1). It counts as cell-based, Wistar rat. As to conditions: 100 μM; 100 μM duroquinone 3 hours; duroquinone alone 51.0±3.4%. The method, then:
as §1, §2
(5) Free radical-mediated toxicity (Duroquinone): Duroquinone produces superoxide-mediated neurotoxicity producing a selective neuronal lesion in the CA1 region. Wilde et al, J. Neurochem., 69(2):883-886 (1997). Cultures were transferred to fresh SFM (+PI) containing 100 μM duroquinone for 3 hours under normal culture conditions. At the end of this period, cultures were returned to fresh SFM for 21 hours prior to determination of neuronal death by PI imaging. MnTBAP (100 μM) was used as a positive neuroprotective control.

Data set [3] shares this test system. The data set can be described thus: Hypoxia-induced neurodegeneration in organotypic hippocampal slice cultures (PI fluorescence in CA1). It is filed as cell-based, Wistar rat. The method, then:
as §1, §2
(3) Hypoxia: Hypoxia was performed by exposing cultures to oxygen-deprivation as described previously. Pringle et al, Brain Research, 755:36-46 (1997); Pringle et al, Stroke, 27:2124-2130 (1996). Hypoxia was induced by transferring cultures to SFM (+PI) which had been saturated with 95% N2/5% CO2. Culture plates (without lids) were then sealed into an airtight chamber in which the atmosphere was saturated with 95% N2/5% CO2 by continuously blowing through gas at 10 L/min for ten minutes before being sealed and placed in the incubator for 170 mins (total time of hypoxia was therefore 180 mins). At the end of the period of hypoxia, cultures were returned to normoxic SFM (+PI) and placed back in the incubator for 21 hours. The freeradical scavenger MnTBAP (100 μM) was used as a positive neuroprotective control.

For data set [4] the test system is unchanged. Nature of the data set: AMPA toxicity in organotypic hippocampal slice cultures (PI fluorescence in CA1). It counts as cell-based, Wistar rat. The method, then: as §1, §2
(1) AMPA: Cultures were transferred to fresh SFM (+PI) containing 30 μM S-AMPA for 3 hours under normal culture conditions. At the end of this period, cultures were returned to fresh SFM for 21 hours prior to determination of neuronal death by PI imaging. GYKI52466 (30 μM) was used as a positive, neuroprotective control.

The test system of data set [5] is dopamine turnover in mice striatum. The data set can be described thus: Dopamine, DOPAC and HVA content / dopamine turnover in mice striatum (HPLC with electrochemical detection). It counts as in vivo, C57BL/6 mice. To be noted: for dopamine turnover in mice: monotherapy vs combination, FIG. 3.
Procedure: C57BL/6 mice (SLC, Shizuoka, Japan) were used for the experiment. […] The two drugs were orally administered by gavage 1 hour before sampling. At the time the mice were sacrificed, both striata were rapidly dissected and were frozen by liquid nitrogen. The samples were subsequently sonicated in 0.5 ml of chilled 0.5 M perchloric acid containing 0.1 M EDTA, and centrifuged at 13000 rpm for 15 min at 4° C. Then monoamine levels were measured by HPLC with electrochemical detection. Supernatant aliquots of 201 were separated over an Eicompak SC5-ODS column (3×150 mm; Eicom, Japan) with mobile phase of 17% methanol, 83% 0.1M acetate/citrate buffer (pH 3.5) containing 190 mg/ml sodium 1-octanesulfonate and 50 mg/ml EDTA, and a flow rate of 0.65 ml/min. Peaks of dopamine, DOPAC, HVA, 5-HT, and 5-HIAA were quantified by area integration with PowerChrom (eDAQ, Australia), and concentrations were expressed as nanograms per milligram of striatal tissue.
For data set [6] the following is noted: C57BL/6, mouse, in vivo, po, 1 h.

With `O=C(O)c1ccc(/C2=C3\C=CC(=N3)/C(c3ccc(C(=O)O)cc3)=c3/cc/c4[n]3[Mn]([Cl])[n]3c2ccc3/C(c2ccc(C(=O)O)cc2)=C2/C=CC(=N2)\C=4c2ccc(C(=O)O)cc2)cc1` [MnTBAP], the “neuronal damage, % of CA1 with PI fluorescence” value (shortened to “neuronal damage, % of CA1”) in data set [1] (100 μM, 60 minutes OGD, OGD alone 50.6±5.2%) came out at 0.1±0.0%; in data set [1] (100 μM, second series, OGD alone 44.8±[…]), 0.6±0.2%; in data set [2], 0.1±0.0%; in data set [3] (100 μM, 3 hours hypoxia, hypoxia alone 45.1±3.5%), 0.2±0.1%; in data set [3] (100 μM, repeated experiment, hypoxia alone 36.9±[…]), 0.8±0.4%; in data set [3] (second set, hypoxia alone 36.4±[…]) it was 0.0±0.0%.

Take `CC1=NN=C(c2ccc(N)cc2)c2cc3c(cc2C1)OCO3` [GYKI52466]: the “neuronal damage, % of CA1” value was 14.3±2.3% in data set [4] (30 μM test compound, 30 μM AMPA 3 hours, AMPA alone 65.1±1.7%); 21.7±2.7% in data set [4] (30 μM, pre-incubation series, AMPA alone 46.5±5.0%); 36.9±3.6% in data set [1] (30 μM, 60 minutes OGD, OGD alone 50.6±5.2%).

Regarding `COc1cc2c(cc1OC)C(=O)C(CC1CCN(Cc3ccccc3)CC1)C2` (stereo not shown) [donepezil, 1-benzyl-4-((5,6-dimethoxy-1-indanon)-2-yl)methylpiperidine], the “content of dopamine in striatum” value in data set [5] (donepezil orally, 1 hour before sampling) was “reduced the content of dopamine significantly”. In data set [5] (donepezil orally, FIG. 2), the DPAC/DA entry is listed as “increased significantly” and the HVA/DA result is “increased significantly”. In addition, the “dopamine turnover in mice” value in data set [5] was “modulated dopamine turnover but neither reached significance”. In data set [6], the “dose at which peripheral side effect was shown” value was at least 7.5 mg/kg.

With `N#Cc1ccccc1-c1cc(-c2ccccn2)cn(-c2ccccc2)c1=O` [2-(2-oxo-1-phenyl-5-pyridin-2-yl-1,2-dihydropyridin-3-yl)benzonitrile], in data set [5] (1 mg/kg, orally, 1 hour before sampling, FIG. 1), the “content of HVA in striatum” value is given as “elevated”. The “dopamine turnover in mice” value in data set [5] was “modulated dopamine turnover but neither reached significance”. Further, the “effect on OGD-induced neurotoxicity” value in data set [1] (any other concentration assessed (up to 3 μM), OGD alone 50.6±5.2%) is on record as “no significant effect”. For the same compound, the “EC50 in OGD model” value in data set [1] (six-point concentration-response curve) is “could not be established”. The “neuronal damage, % of CA1” value in data set [3] (5 μM, hypoxia alone 45.1±3.5%) came to 3.9±1.8%.

(Values after US20090131480A1 (priority 2005, published 2009).)
